{"source": "paper PMC5472279", "about": "“Genetic, structural, and chemical insights into the dual function of GRASP55 in germ cell Golgi remodeling and JAM-C polarized localization during spermatogenesis” (PLoS Genetics, 2017)", "key": {"[1]": {"target": "T1, His-GRASP55 PDZ12 (Mus musculus, UniProt Q99JX3)", "T1 construct": "gene Gorasp2; tandem PDZ domains PDZ12 aa 2-208, N-terminal 6His tag, E. coli BL21(DE3)", "test": "differential scanning fluorimetry (SYPRO orange)", "type": "binding", "conditions": "4 μM protein, 50 μM Graspin, PBS, 2.5% DMSO", "text": "differential scanning fluorimetry (SYPRO orange) on His-GRASP55 PDZ12 | […], but not the JAM-C peptide, decreased the GRASP55 melting temperature"}, "[2]": {"target": "T2, GST-GRASP55 FL (Mus musculus, UniProt Q99JX3)", "T2 construct": "gene Gorasp2; full-length aa 2-451, N-terminal GST tag, E. coli BL21(DE3)", "test": "HTRF competition with biotinylated JAM-B C-terminal 19-mer peptide", "type": "binding"}}, "data": [{"smiles": "CCCCCn1c(SCCCn2c(Br)nc3c2c(=O)[nH]c(=O)n3C)nc2c1c(=O)[nH]c(=O)n2C", "note": "[Graspin]", "values": [{"measurement": "dTm", "setting": "[1]", "result": "Graspin, but not the JAM-C peptide, decreased the GRASP55 melting temperature"}, {"measurement": "IC50", "setting": "[2]", "result": 8.4, "unit": "µM"}]}]}
